Experimental data published in article PMC6274529, “Flavonoids-Rich Orthosiphon stamineus Extract as New Candidate for Angiotensin I-Converting Enzyme Inhibition: A Molecular Docking Study” (Molecules, 2016).
Where “and” joins values, the source holds several entries; their conditions need not be identical. Identical values can stand only once. Like-named read-outs stand apart in the source and are kept apart here.

Tests used:
[1] = target: T1, ACE enzyme (from rabbit lung) (Oryctolagus cuniculus, UniProt P12822); test: In vitro ACE inhibition activity (HA formation from HHL, HPLC-UV)
T1 sequence (P12822 34-1310): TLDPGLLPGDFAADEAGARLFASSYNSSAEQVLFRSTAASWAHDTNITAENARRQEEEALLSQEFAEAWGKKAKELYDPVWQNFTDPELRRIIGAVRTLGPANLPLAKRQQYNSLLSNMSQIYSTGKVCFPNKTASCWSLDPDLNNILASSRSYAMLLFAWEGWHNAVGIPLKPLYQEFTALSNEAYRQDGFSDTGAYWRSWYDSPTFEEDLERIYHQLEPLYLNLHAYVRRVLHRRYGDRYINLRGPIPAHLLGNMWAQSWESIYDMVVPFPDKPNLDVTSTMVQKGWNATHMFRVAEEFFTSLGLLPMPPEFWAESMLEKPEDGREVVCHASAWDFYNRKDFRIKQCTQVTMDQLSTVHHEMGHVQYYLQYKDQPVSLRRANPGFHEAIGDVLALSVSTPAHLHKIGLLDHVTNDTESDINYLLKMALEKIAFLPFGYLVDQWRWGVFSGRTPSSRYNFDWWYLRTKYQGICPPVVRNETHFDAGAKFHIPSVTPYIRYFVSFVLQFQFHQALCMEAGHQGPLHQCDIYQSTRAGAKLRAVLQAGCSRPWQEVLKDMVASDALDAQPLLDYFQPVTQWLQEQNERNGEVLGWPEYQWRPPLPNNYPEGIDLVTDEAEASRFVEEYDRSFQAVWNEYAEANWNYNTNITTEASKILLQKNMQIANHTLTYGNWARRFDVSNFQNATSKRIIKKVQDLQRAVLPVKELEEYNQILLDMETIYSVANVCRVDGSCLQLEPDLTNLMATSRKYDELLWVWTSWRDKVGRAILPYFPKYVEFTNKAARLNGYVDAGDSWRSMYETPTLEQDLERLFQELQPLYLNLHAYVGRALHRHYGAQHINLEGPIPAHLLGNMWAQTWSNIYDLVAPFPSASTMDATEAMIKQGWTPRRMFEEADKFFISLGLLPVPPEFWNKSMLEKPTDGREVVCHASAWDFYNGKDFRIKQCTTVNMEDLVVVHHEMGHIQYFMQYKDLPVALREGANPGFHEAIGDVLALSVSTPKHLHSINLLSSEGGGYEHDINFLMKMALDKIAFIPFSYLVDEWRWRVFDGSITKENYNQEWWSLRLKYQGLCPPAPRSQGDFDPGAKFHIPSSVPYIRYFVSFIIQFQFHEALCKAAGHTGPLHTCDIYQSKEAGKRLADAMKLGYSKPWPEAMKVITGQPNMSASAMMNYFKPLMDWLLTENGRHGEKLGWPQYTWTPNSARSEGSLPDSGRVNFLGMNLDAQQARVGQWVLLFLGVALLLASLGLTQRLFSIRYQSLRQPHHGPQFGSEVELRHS
Method: This method relies on determining hippuric acid (HA) formation from ACE-specific substrate hippuryl-histidyl-leucine (HHL) by the action of ACE enzyme, resulting in the removal of C-terminal dipeptide histidylleucine.
The high performance liquid chromatography (HPLC) was performed using an Agilent Technologies (Series 1200 infinity, Frankfurt, Germany) system. Separations were accomplished on a Zorbax Eclipse plus phenyl-hexyl (4.6 mm × 250 mm, 5 µm, Agilent) and the column temperature was maintained at 30 °C. Substrates of HA and HHL were detected at 228 nm. The flow rate was set at 0.6 mL/min and injection volume was 10 μL. The mobile phase consisted of 20% acetonitrile and 80% of 0.1% ammonium dihydrogen phosphate buffer was used in this analysis with 10 min separation time.
For substrate HHL hydrolysis catalyzed by purified rabbit ACE enzyme, the total reaction volume was 200 µL. Phosphate buffer (pH 8.3) was used to dilute the substrate HHL and rabbit lung ACE enzyme. […] The reaction mixtures were incubated for 2 h at 37 °C. The reaction was terminated by heating the samples at 100 °C in water bath, and then 800 µL of water was added to all samples, and they were analyzed by stated HPLC method.
HHL as substrate was prepared freshly in 10 mM phosphate buffer pH 8.3 and then sonicated for 30 min. […] Angiotensin converting enzyme (ACE) was prepared at 0.05 U/mL in phosphate buffer pH 8.3 containing 0.1% bovine serum albumin (BSA). Then, 50 µL of purified ACE enzyme and 20 µL extracts, reference compounds or captopril at different concentrations were added to 130 µL of HHL substrate. Control reaction mixture was contained 20 µL of 50% ethanol instead of extracts. All samples were incubated for 2 h at 37 °C. The reaction was stopped by heating the samples at 100 °C. All samples were analyzed by HPLC after adding 800 µL of water. ACE inhibition rate was calculated by the following equation: ACE inhibition activity of test substances (%) = [(HA concentration levels without test substances) − (HA concentration levels with test substances)/(HA concentration levels without test substances)] × 100 (3)

[2] = Chelation of zinc (II) ion by tetramethylmurexide reagent; assay type: physicochemical; conditions: hexamine/HCl buffer pH 5.0, mean ± SD
Method: Therefore, this extract was selected to study its chelation ability with zinc (II) ion. […]. Based on this standard curve, the amount of metal ions bound by the compound tested was evaluated. […].
Briefly, 0.01 M hexamine/HCl buffer was prepared at pH 5.0 with addition of 0.01 M KCl. Stock solution of captopril. […] A series of working sample solutions were prepared by diluting the stock solutions with hexamine/HCl buffer (0–5 mg/mL). ZnCl2 was prepared in the same buffer at concentration of 0.8 mM. Then, 1 mL of sample solutions was mixed with 1 mL ZnCl2 solution and 0.1 mL tetramethylmurexide at concentration of 1 mM. Absorbance was recorded at 462 nm and 530 nm and then the ratio of A462/A530 was calculated. Distilled deionized water was used instead of tetramethylmurexide reagent in control samples. A standard curve of absorbance ratio versus metal ions concentrations (0 to 3.2 mM) was prepared and the percentage of bound metal ions was calculated. Percentage of bond with Zn^2+ = 1 − (Concentration of free Zn^2+/Concentration of total Zn^2+) × 100(4)

Structure (SMILES) | IC50 [1] [µM] | IC50 ([1]; IC50 on in vitro ACE inhibitory assay, purified rabbit lung ACE, HHL substrate, 2 h at 37 °C, mean ± SD (n = 3)) | Zn (II) chelating activity (percentage of bound Zn (II)) ([2]; at concentration of 4 mg/mL) | Zn (II) chelating activity (percentage of bound Zn (II)) ([2]; at concentration of 5 mg/mL)
O=C(/C=C/c1ccc(O)c(O)c1)O[C@H](Cc1ccc(O)c(O)c1)C(=O)O [RA, rosmarinic acid] | 52.2 |  |  | 
C[C@H](CS)C(=O)N1CCC[C@H]1C(=O)O [Captopril, captopril] |  |  | 100% ± 1.59% | 

Continued, in another order:

IC50 [1] [µM] | IC50 ([1]; IC50 on in vitro ACE inhibitory assay, purified rabbit lung ACE, HHL substrate, 2 h at 37 °C, mean ± SD (n = 3)) | Structure (SMILES) | Zn (II) chelating activity (percentage of bound Zn (II)) ([2]; at concentration of 4 mg/mL) | Zn (II) chelating activity (percentage of bound Zn (II)) ([2]; at concentration of 5 mg/mL)
 | 44.6 µM and 44.7 µM | COc1ccc(-c2cc(=O)c3c(O)c(OC)c(OC)cc3o2)cc1O [EUP, eupatorin] |  | 56.03% ± 1.26%
79.2 |  | COc1ccc(-c2cc(=O)c3c(OC)c(OC)c(OC)cc3o2)cc1OC [SIN, sinensetin] |  | 6.71% ± 0.62%
77.9 |  | COc1ccc(-c2cc(=O)c3c(OC)c(OC)c(OC)cc3o2)cc1O [TMF, 3′-hydroxy-5,6,7,4′-tetramethoxyflavone] |  | 
